Test results as given in paper PMC6651454, “An Established HPLC-MS/MS Method for Evaluation of the Influence of Salt Processing on Pharmacokinetics of Six Compounds in Cuscutae Semen” (Molecules, 2019).
Like-named read-outs stand apart in the source and are kept apart here.

Experiment: Pharmacokinetics in rat plasma after oral administration of SF-CS and SP-CS extracts (HPLC-MS/MS)
Type: in vivo, Male Sprague-Dawley rats
Conditions: for Tmax / AUC(0-inf) / Cmax / AUC(0-t) / MRT last: male, Sprague-Dawley; for Tmax / AUC(0-inf) / Cmax / AUC(0-t) / MRT last / Shape of plasma concentration-time profile / T1/2ka / T1/2α / AUC(0–24h): rat plasma; for AUC(0-t): read-out: AUC0–24h; for MRT last: read-out: MRT0–24h; for Shape of plasma concentration-time profile: oral SF-CS and SP-CS extracts
Procedure: All components were measured on an Agilent 1200 HPLC system (Agilent Corporation, Santa Clara, CA, USA) and API 3200 triple quadrupole mass spectrometer (Concord, ON, Canada) in negative ion mode. Acetonitrile (A) and 0.1% formic acid-water (B) were used to separate the analytes on an Agilent Eclipse plus C18 column (4.6 mm × 100 mm, 1.8 μm) with a flow rate of 0.5 mL·min^−1. […] The equilibration time (10 min) of the sequence was added before the next injection. The column temperature was 30 °C. The optimized main parameters, namely curtain gas, collision gas, ion Spray voltage, and temperature, were set at 30 psi, 8 psi, −4000 V, and 600 °C, respectively.
The plasma sample (100 μL), IS (10 μL) and formic acid (10 μL) were mixed and vortexed for 1 min. Then, 1 mL of ethyl acetate was spiked into the mixed solution and centrifuged for 10 min at 14,000 rpm. The supernatant was transferred and evaporated with nitrogen gas. These residues were re-dissolved with 100 μL methanol. The final solutions were vortexed for 2 min and centrifuged for 10 min. The supernatant was injected into the HPLC-MS/MS and analyzed.
The pharmacokinetic study was conducted in accordance with the Guidelines for the Care and Use of Laboratory Animals by USA National Institutes of Health and approved by the Animal Ethics Committee of Tianjin University of Traditional Chinese Medicine (the permit number: TCM-LAEC2019023, Tianjin, China). Male Sprague-Dawley rats (200–240 g) were fed in the animal laboratory of Tianjin University of Traditional Chinese Medicine under the standard conditions. These rats were fed and given water for 1 week before experimentation. […] In order to investigate the influence of processing on the metabolic process of active ingredients in vivo, the same amount of raw CS was processed and administrated. Depending on the clinical dosage that was applied to the human body, the dosage of SF-CS extracts was 1.9 g kg^−1 (an equivalent dosage of 12.75 g kg^−1 raw CS) for oral administration, while extraction of SP-CS was 2.2 g kg^−1 (an equivalent dosage of 12.50 g kg^−1 raw CS). In order to investigate the influence of salt on the metabolic process of active ingredients in vivo, the dosage of SF-CS extracts was 1.9 g kg^−1 (an equivalent dosage of 12.75 g kg^−1 raw CS) and SF-CS extracts with salt ( 0.26 g kg^−1 ) were used to perform the pharmacokinetic study. […] The collected plasma was centrifuged for 10 min at 6000 rpm and stored at −20 °C before analysis.
All of the pharmacokinetic parameters were estimated with the DAS1.0 system (Medical College of Wannan, China). The maximum concentration of oral administration of CS (Cmax) and the time to reach Cmax (Tmax) were achieved from the concentration–time profile. All values were shown as mean ± standard deviation. Independent t-test was used to compare the pharmacokinetic parameters of the two processed CS.

[1] = oral SF-CS extract (A) 1.9 g kg^-1, n = 10
[2] = oral SF-CS extract (A) 1.9 g kg^-1, n = 10, mean ± SD
[3] = oral SP-CS extract (B) 2.2 g kg^-1, n = 10
[4] = oral SP-CS extract (B) 2.2 g kg^-1, n = 10, mean ± SD

SMILES: O=C(/C=C/c1ccc(O)c(O)c1)O[C@@H]1C[C@](O)(C(=O)O)C[C@@H](O)[C@H]1O [Chlorogenic acid, chlorogenic acid]
- Tmax [1]: 3.84 h
- AUC(0-inf) [2]: 1670 ± 931 ng·h/mL
- Cmax [2]: 257 ± 53 ng/mL
- AUC(0-t) [2]: 1660 ± 931 ng·h/mL
- MRT last [2]: 4.81 ± 0.35 h
- Tmax [3]: 0.28 h
- AUC(0-inf) [4]: 438 ± 289 ng·h/mL
- Cmax [4]: 175 ± 168 ng/mL
- AUC(0-t) [4]: 417 ± 281 ng·h/mL
- MRT last [4]: 5.06 ± 1.1 h
- Shape of plasma concentration-time profile: double-peak phenomenon
- T1/2ka [2]: 0.63 ± 0.87 h
- T1/2α [2]: 6.53 ± 5.20 h
- T1/2ka [4]: 0.02 ± 0.01 h
- T1/2α [4]: 0.84 ± 0.42 h

SMILES: O=c1c(O[C@@H]2O[C@H](CO)[C@H](O)[C@H](O)[C@H]2O)c(-c2ccc(O)c(O)c2)oc2cc(O)cc(O)c12 [Hyperin, hyperin]
- Tmax [1]: 0.74 h
- AUC(0-inf) [2]: 331 ± 80 ng·h/mL
- Cmax [2]: 21.3 ± 6.98 ng/mL
- AUC(0-t) [2]: 172 ± 38 ng·h/mL
- MRT last [2]: 9.19 ± 1.5 h
- Tmax [3]: 0.11 h
- AUC(0-inf) [4]: 185 ± 153 ng·h/mL
- Cmax [4]: 36.6 ± 21.9 ng/mL
- AUC(0-t) [4]: 63 ± 27.8 ng·h/mL
- MRT last [4]: 8.66 ± 2.37 h
- T1/2ka [2]: 2.15 ± 4.21 h
- T1/2α [2]: 11.7 ± 6.73 h
- T1/2ka [4]: 0.01 ± 0.01 h
- T1/2α [4]: 0.46 ± 0.30 h

SMILES: O=c1c(O[C@@H]2O[C@H](CO)[C@@H](O)[C@H](O)[C@H]2O)c(-c2ccc(O)c(O)c2)oc2cc(O)cc(O)c12 [Isoquercitrin, isoquercitrin]
- Detection in rat plasma (after oral administration of the two processed products of CS, LLOQ 2 ng·mL^−1): could not be tested

SMILES: O=C(O)/C=C/c1ccc(O)cc1 [P-coumaric acid, p-coumaric acid]
- Tmax [1]: 0.54 h
- AUC(0-inf) [2]: 3290 ± 591 ng·h/mL
- Cmax [2]: 1210 ± 310 ng/mL
- AUC(0-t) [2]: 3200 ± 635 ng·h/mL
- MRT last [2]: 4.24 ± 1.45 h
- Tmax [3]: 0.33 h
- AUC(0-inf) [4]: 2800 ± 951 ng·h/mL
- Cmax [4]: 805 ± 307 ng/mL
- AUC(0-t) [4]: 2570 ± 792 ng·h/mL
- MRT last [4]: 5.68 ± 1.69 h
- AUC(0–24h) (oral SF-CS extract): 3200 ± 635 ng·h/mL
- T1/2ka [2]: 0.15 ± 0.12 h
- T1/2α [2]: 1.32 ± 0.86 h
- AUC(0–24h) (oral SP-CS extract): 2570 ± 792 ng·h/mL
- T1/2ka [4]: 0.05 ± 0.04 h
- T1/2α [4]: 1.40 ± 0.95 h

SMILES: O=c1c(O[C@@H]2O[C@H](CO)[C@@H](O)[C@H](O)[C@H]2O)c(-c2ccc(O)cc2)oc2cc(O)cc(O)c12 [Astragalin, astragalin]
- Tmax [1]: 0.99 h
- AUC(0-inf) [2]: 11.2 ± 10.8 ng·h/mL
- Cmax [2]: 0.65 ± 0.39 ng/mL
- AUC(0-t) [2]: 1.27 ± 0.76 ng·h/mL
- MRT last [2]: 2.3 ± 0.98 h
- Tmax [3]: 0.17 h
- AUC(0-inf) [4]: 2.33 ± 0.72 ng·h/mL
- Cmax [4]: 1.43 ± 0.21 ng/mL
- AUC(0-t) [4]: 1.31 ± 0.27 ng·h/mL
- MRT last [4]: 2.13 ± 0.2 h
- AUC(0–24h) (oral SF-CS extract): 1.27 ± 0.76 ng·h/mL
- T1/2ka [2]: 2.27 ± 5.13 h
- T1/2α [2]: 24.6 ± 33.2 h
- AUC(0–24h) (oral SP-CS extract): 1.31 ± 0.27 ng·h/mL
- T1/2ka [4]: 0.04 ± 0.00 h
- T1/2α [4]: 0.10 ± 0.04 h

SMILES: O=C(/C=C/c1ccc(O)c(O)c1)O[C@@H]1C[C@@](O)(C(=O)O)C[C@@H](O)[C@@H]1O [Neochlorogenic acid, neochlorogenic acid]
- Tmax [1]: 3.75 h
- AUC(0-inf) [2]: 567 ± 376 ng·h/mL
- Cmax [2]: 88.6 ± 39.6 ng/mL
- AUC(0-t) [2]: 548 ± 384 ng·h/mL
- MRT last [2]: 5.57 ± 1.74 h
- Tmax [3]: 0.26 h
- AUC(0-inf) [4]: 178 ± 22 ng·h/mL
- Cmax [4]: 31.8 ± 17.3 ng/mL
- AUC(0-t) [4]: 129 ± 38 ng·h/mL
- MRT last [4]: 8.18 ± 1.66 h
- Shape of plasma concentration-time profile: double-peak phenomenon
- T1/2ka [2]: 1.12 ± 1.66 h
- T1/2α [2]: 7.72 ± 7.50 h
- T1/2ka [4]: 0.02 ± 0.02 h
- T1/2α [4]: 3.35 ± 4.31 h
